Like-named read-outs stand apart in the source and are kept apart here.
What was measured:
rBsep = settings: In vitro Assay; ref Dawson 2012; cited from earlier work
[1] = cited from earlier work
PHH [2] = settings: In vitro Assay; ref Albrecht 2019; cited from earlier work
HepG2 cells [3] = settings: cited from earlier work; for Structural based (HCI): In vitro Assay, ref O'Brien 2006
[4] = tested on: primary human hepatocytes, NIH3T3 fibroblasts, BSEP, CYP3A4; settings: In vitro Assay; ref Schadt 2015; cited from earlier work
human hepatocytes = settings: In vitro Assay; ref Xu 2008; cited from earlier work
[5] = ref Chen 2011; cited from earlier work
[6] = tested on: HepG2 cells, primary human hepatocytes; settings: In vitro Assay; ref Garside 2014; cited from earlier work
HepG2 = tested on: HepG2; parameters: method as in Albrecht 2019; settings: In vitro Assay; ref Albrecht 2019; cited from earlier work
[7] = tested on: THLE or HepG2 cells, isolated mitochondria, BSEP; settings: cited from earlier work; for Partition Hybrid HRM Score / Ro2 Hybrid HRM Score: In vitro Assay, ref Aleo 2019
[8] = cited from earlier work; remark: listed apart in the source
[9] = tested on: THLE-Null and THLE-3A4 cells; settings: In vitro Assay; ref Gustafsson 2014; cited from earlier work
[10] = read-out: Human plasma Cmax; total plasma Cmax.tot, median of 9 literature references; cited from earlier work
hLiMTs [11] = experiment: Combined HCI (HCS) and cellular ATP 3D assay in hLiMTs; settings: for AC50 / minimal effective concentration: Homo sapiens
hLiMTs [12] = settings: cited from earlier work
HepaRG spheroids = experiment: Combined HCI (HCS) and cellular ATP 3D assay in HepaRG spheroids; settings: for AC50 / minimal effective concentration: Homo sapiens
Protocol: 3D spheroid models consisting of either primary human hepatocytes with non-parenchymal cells (hLiMT’s) or HepaRG cells (HepaRG spheroids) were assessed for size (MS), oxidative stress (OS), MMP, mitochondrial mass (MM), GSH and cellular ATP content following drug exposure. Fluorescent images are acquired using the confocal mode of an ArrayScan™ XTI HCI reader (ThermoScientific) following which cellular ATP was measured using 3D CellTiter-Glo (Promega).

[13] = plasma free fraction; cited from earlier work
[14] = Plasma free fraction (fu) and unbound Cmax (Cmax,u); type: in vitro ADME, human; settings: unbound plasma Cmax
Protocol: The prediction of DILI severity was evaluated further using the 3D combined HCI assays using plasma-free fraction. The majority of fu values were obtained from literature, when unavailable in-house prediction was utilised. Unbound plasma Cmax concentrations (Cmax,u) were derived by multiplying total plasma Cmax with the corresponding free fraction (fu) for each compound.

PHH [15] = settings: cited from earlier work
PHH spheroids = settings: cited from earlier work; for hLiMTs ATP <20 x Cmax: In vitro Assay, ref Vorrink 2018
HepG2 cells [16] = settings: In vitro Assay; ref Persson 2013; cited from earlier work
[17] = Microtissue model structural based (HCI), combined HCS and ATP, MEC < 25 × Cmax.tot cut-off
[18] = In vitro Assay, ref Proctor 2017
[19] = Modeled in vitro assays (cytotoxicity, mitochondrial dysfunction, BSEP), ref Aleo et al. 2019

Cc1oncc1C(=O)Nc1ccc(C(F)(F)F)cc1 [leflunomide]
8: DILI Score (FDA) (1-8) [5]
-VE: Inhibition of rBsep cutoff<1& cmax u>.2 (rBsep) | Cellular toxicity (3T3 cells) [4] | Combined Assay [4] | Hepatocyte cellular toxicity [4] | MitoTox 3T3 [4] | TDI CYP3A4 [4] | hBSEP inhibition [4] | Structural based (HCI) (human hepatocytes) | Cluster 1-6 +VE Assay [6] | THLE-Null [9] | THLE-Null/3A4 [9]
+VE: Inhibition of rBsep cutoff<3 (rBsep) | DILI +VE (5-8), DILI -VE (-4) ([1]; ref Chen 2016) | Cytotoxicity PHH 48 hrs (PHH [2]) | Structural based (HCI) (HepG2 cells [3]) | GSH adduct HML [4] | Cytotoxicity HepG2 48 hrs (HepG2) | Partition Hybrid HRM Score [7] | Ro2 Hybrid HRM Score [7] | In vivo DILI ([8]; ref Albrecht 2019) | In vivo DILI ([8]; ref Aleo 2019) | In vivo DILI ([8]; ref Dawson 2012) | In vivo DILI ([8]; ref Garside 2014) | In vivo DILI ([8]; ref Gustafsson 2014) | In vivo DILI ([8]; ref O'Brien 2006) | In vivo DILI ([8]; ref Schadt 2015) | In vivo DILI ([8]; ref Xu 2008)
vMost-DILI-Concern: DILI severity category ([1]; ref Chen 2016)

NC(N)=Nc1nc(CSCCC(N)=NS(N)(=O)=O)cs1 [famotidine]
vLess-DILI-Concern: DILI severity category ([1]; ref Chen 2016)
+VE: DILI +VE (5-8), DILI -VE (-4) ([1]; ref Chen 2016) | Structural based (HCI) (HepG2 cells [3]) | In vivo DILI ([8]; ref Dawson 2012) | In vivo DILI ([8]; ref Garside 2014) | In vivo DILI ([8]; ref O'Brien 2006)
3: DILI Score (FDA) (1-8) [5]
-VE: Inhibition of rBsep cutoff<1& cmax u>.2 (rBsep) | Inhibition of rBsep cutoff<3 (rBsep) | Cytotoxicity PHH 48 hrs (PHH [2]) | Structural based (HCI) (human hepatocytes) | Cluster 1-6 +VE Assay [6] | Cytotoxicity HepG2 48 hrs (HepG2) | In vivo DILI ([8]; ref Albrecht 2019) | In vivo DILI ([8]; ref Xu 2008)

CN(C)CCC(c1ccc(Cl)cc1)c1ccccn1 (stereo not shown) [chlorpheniramine]
0.277: fu [13]
66.6 µM: minimal effective concentration (hLiMTs [11]; read-out: HCS endpoint MEC)
10.7 µM: minimal effective concentration (hLiMTs [11]; read-out: ATP endpoint MEC)
14.3 µM: minimal effective concentration (HepaRG spheroids; HepaRG, read-out: HCS endpoint MEC)
98.5 µM: AC50 (hLiMTs [11]; read-out: HCS endpoint AC50)
No: DILI severity category (Chen et al. [2016]) ([1]; LTKB DILIrank category, ref Chen et al. 2016) | DILI severity category (Chen 2016) ([1]; human DILI classification, LTKB DILIrank, ref Chen et al. 2016) | DILI severity category ([1]; human DILI severity, ref Chen et al.)
+VE: Structural based (HCI) (HepG2 cells [3]) | In vivo DILI ([8]; ref Proctor 2017) | In vivo DILI ([8]; ref Xu 2008)
101 nM: Human plasma Cmax,u [14]
1: Assigned DILI category ([8]; Chen et al. 2016 or literature alignment, ref Chen et al. 2016)
120 µM: minimal effective concentration (HepaRG spheroids; HepaRG, read-out: ATP endpoint MEC)
vNo-DILI-Concern: DILI severity category ([1]; ref Chen 2016)
+VE (IC50 threshold of 100 µM): hLiMTs ATP <100uM (hLiMTs [12]; [18]) | hLiMTs/100uM, Proctor (2017) (hLiMTs [12]; hLiMTs, ATP, IC50 threshold 100 µM, ref Proctor et al. 2017)
-VE: DILI +VE (5-8), DILI -VE (-4) ([1]; ref Chen 2016) | Cytotoxicity PHH 48 hrs (PHH [2]) | DILI in vitro assay prediction, O'Brien (2006) (HepG2 cells [3]; Structural based (HCI), HepG2, ref O'Brien et al. 2006) | DILI prediction hLiMTs (HCS-MEC) (hLiMTs [11]; [17]) | Cytotoxicity HepG2 48 hrs (HepG2) | Partition Hybrid HRM Score [7] | Ro2 Hybrid HRM Score [7] | Partition Hybrid HRM Score ≥4, Aleo (2019) [7, 19] | Partition Hybrid HRM Score ≥8, Aleo (2019) [7, 19] | Rule of Two hybrid HRM Score ≥3, Aleo (2019) [7, 19] | Rule of Two hybrid HRM Score ≥8, Aleo (2019) [7, 19] | DILI prediction HepaRG spheroids (HCS-MEC) (HepaRG spheroids; [17]) | In vivo DILI ([8]; ref Albrecht 2019) | In vivo DILI ([8]; ref Aleo 2019) | In vivo DILI ([8]; ref O'Brien 2006) | In vivo DILI ([8]; ref Vorrink 2018) | PHH/100uM, Proctor (2017) (PHH [15]; 2D PHH, ATP, IC50 threshold 100 µM, ref Proctor et al. 2017) | PHH ATP <100uM (PHH [15]; [18]) | hLiMTs ATP <20 x Cmax (PHH spheroids) | DILI in vitro assay prediction, Vorrink (2018) (PHH spheroids; PHH spheroids, ATP, 14 days, IC20 < 20 × Cmax.tot, ref Vorrink et al. 2018)
366 nM: Cmax [10]
129 µM: AC50 (HepaRG spheroids; HepaRG, read-out: ATP endpoint AC50)
30.9 µM: AC50 (hLiMTs [11]; read-out: ATP endpoint AC50)
-ve: hLiMTs <25x Avg Cmax ATP (hLiMTs [11]; hLiMTs, ATP endpoint, cut-off <25x Avg Cmax) | hLiMTs <100x Avg Cmaxu ATP (hLiMTs [11]; hLiMTs, ATP endpoint, cut-off <100x Avg Cmaxu) | hLiMTs <25x Avg Cmax HCS (hLiMTs [11]; hLiMTs, HCS endpoints, cut-off <25x Avg Cmax) | hLiMTs <100x Avg Cmaxu HCS (hLiMTs [11]; hLiMTs, HCS endpoints, cut-off <100x Avg Cmaxu) | hLiMTs <25x Avg Cmax All (hLiMTs [11]; hLiMTs, all endpoints (ATP and HCS), cut-off <25x Avg Cmax) | hLiMTs Cmax max All (hLiMTs [11]; hLiMTs, all endpoints, Cmax max used) | hLiMTs Cmax min All (hLiMTs [11]; hLiMTs, all endpoints, Cmax min used) | hLiMTs <10 uM All (hLiMTs [11]; hLiMTs, all endpoints, cut-off <10 uM) | hLiMTs <100x Avg Cmaxu All (hLiMTs [11]; hLiMTs, all endpoints, cut-off <100x Avg Cmaxu) | HepaRG <25x Avg Cmax ATP (HepaRG spheroids; HepaRG, ATP endpoint, cut-off <25x Avg Cmax) | HepaRG <100x Avg Cmaxu ATP (HepaRG spheroids; HepaRG, ATP endpoint, cut-off <100x Avg Cmaxu) | HepaRG <25x Avg Cmax HCS (HepaRG spheroids; HepaRG, HCS endpoints, cut-off <25x Avg Cmax) | HepaRG <100x Avg Cmaxu HCS (HepaRG spheroids; HepaRG, HCS endpoints, cut-off <100x Avg Cmaxu) | HepaRG <25x Avg Cmax All (HepaRG spheroids; HepaRG, all endpoints (ATP and HCS), cut-off <25x Avg Cmax) | HepaRG Cmax max All (HepaRG spheroids; HepaRG, all endpoints, Cmax max used) | HepaRG Cmax min All (HepaRG spheroids; HepaRG, all endpoints, Cmax min used) | HepaRG <10 uM All (HepaRG spheroids; HepaRG, all endpoints, cut-off <10 uM) | HepaRG <100x Avg Cmaxu All (HepaRG spheroids; HepaRG, all endpoints, cut-off <100x Avg Cmaxu)
119 µM: AC50 (HepaRG spheroids; HepaRG, read-out: HCS endpoint AC50)

CC(CCc1ccccc1)NCC(O)c1ccc(O)c(C(N)=O)c1 (stereo not shown) [labetalol]
+VE: DILI +VE (5-8), DILI -VE (-4) ([1]; ref Chen 2016) | Cytotoxicity PHH 48 hrs (PHH [2]) | Structural based (HCI) (HepG2 cells [3]) | Structural based (HCI) (human hepatocytes) | Cluster 1-6 +VE Assay [6] | Cytotoxicity HepG2 48 hrs (HepG2) | In vivo DILI ([8]; […]) | In vivo DILI ([8]; ref Albrecht 2019) | In vivo DILI ([8]; ref Aleo 2019) | In vivo DILI ([8]; ref Garside 2014) | In vivo DILI ([8]; ref O'Brien 2006) | In vivo DILI ([8]; ref Persson 2013) | In vivo DILI ([8]; ref Vorrink 2018) | In vivo DILI ([8]; ref Xu 2008)
8: DILI Score (FDA) (1-8) [5]
vMost-DILI-Concern: DILI severity category ([1]; ref Chen 2016)
-VE: Cluser analysis (HepG2 cells [16]) | Structural based (HCI) (HepG2 cells [16]) | hLiMTs ATP <20 x Cmax (PHH spheroids)

Cc1ccnc2c1NC(=O)c1cccnc1N2C1CC1 [nevirapine]
vMost-DILI-Concern: DILI severity category ([1]; ref Chen 2016)
+VE: DILI +VE (5-8), DILI -VE (-4) ([1]; ref Chen 2016) | Cytotoxicity PHH 48 hrs (PHH [2]) | Combined Assay [4] | GSH adduct HML [4] | MitoTox 3T3 [4] | Cytotoxicity HepG2 48 hrs (HepG2) | Partition Hybrid HRM Score [7] | In vivo DILI ([8]; […]) | In vivo DILI ([8]; ref Albrecht 2019) | In vivo DILI ([8]; ref Aleo 2019) | In vivo DILI ([8]; ref Garside 2014) | In vivo DILI ([8]; ref Schadt 2015)
8: DILI Score (FDA) (1-8) [5]
-VE: Cellular toxicity (3T3 cells) [4] | Hepatocyte cellular toxicity [4] | TDI CYP3A4 [4] | hBSEP inhibition [4] | Cluster 1-6 +VE Assay [6] | Ro2 Hybrid HRM Score [7]
